In US20140128367A1, “CYCLOALKYL-FUSED TETRAHYDROQUINOLINES AS CRTH2 RECEPTOR MODULATORS” (Merck Sharp & Dohme Corp., priority 2011, published 2014):
Where two headings read alike, the source gives them in different places.

Legend:
hCRTH2 [1] = target: T1, hCRTH2 (Homo sapiens, UniProt Q9Y5Y4); design: expressed in transfected cells; host or cells: HEK (human embryonic kidney) cell line expressing hCRTH2; settings: Radioligand Binding Assay B, 0.7 nM [3H]PGD2, HEK-hCRTH2 membranes; rated A-D
T1 sequence (Q9Y5Y4 1-395): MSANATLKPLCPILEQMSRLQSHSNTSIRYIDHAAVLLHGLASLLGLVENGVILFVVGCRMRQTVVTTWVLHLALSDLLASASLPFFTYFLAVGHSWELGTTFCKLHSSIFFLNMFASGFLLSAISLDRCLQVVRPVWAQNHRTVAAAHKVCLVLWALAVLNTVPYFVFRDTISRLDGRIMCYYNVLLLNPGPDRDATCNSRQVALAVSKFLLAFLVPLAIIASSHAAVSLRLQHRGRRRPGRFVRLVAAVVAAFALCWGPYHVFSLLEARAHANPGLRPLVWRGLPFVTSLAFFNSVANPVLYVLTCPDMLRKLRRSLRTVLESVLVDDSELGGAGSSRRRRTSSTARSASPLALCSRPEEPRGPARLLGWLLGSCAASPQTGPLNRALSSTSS

hCRTH2 [2] = target: T1, hCRTH2; assay: biochemical; settings: Radioligand Binding Assay A, 3.0 nM [3H]PGD2, HEK-hCRTH2 membranes

| Ki (hCRTH2 [1]) [nM] | Ki (hCRTH2 [2]) [nM] | Structure (SMILES) |
| --- | --- | --- |
| 20.1 to 200 |  | O=C(O)CCC(=O)N(C1CC1)[C@@H]1c2ccc(F)cc2N(C(=O)c2ccccc2)[C@@H]2CCC[C@@H]21 (racemic) [16D, 4-{cyclopropyl[cis, cis-6-fluoro-4-(phenylcarbonyl)-2,3,3a,4,9,9a-hexahydro-1H-cyclopenta[b]quinolin-9-yl]amino}-4-oxobutanoic acid] |
|  | 2.4 | CCc1ccc(C(=O)N2c3cc(Cl)ccc3C(N(C(=O)CCC(=O)O)C3CCC3)C3CCCC32)cc1 (single isomer, unassigned) [17CQ, 4-[[cis, cis-6-chloro-4-(4-ethylbenzoyl)-2,3,3a,4,9,9a-hexahydro-1H-cyclopenta[b]quinolin-9-yl]cyclobutylamino]-4-oxobutanoic acid] |
